Tested on: males with ASD
Test: Aberrant Behavior Checklist (ABC), parent questionnaire, SAT-1 trial
Assay type: in vivo, human
Details: ABC Stereotypy
Method: Two observational examinations were performed by a clinician at 3 time points: baseline (56±8 days; mean±SEM; before the infusion), 2-days post-infusion, and 6-weeks post-infusion. The two examiner-based metrics were the Autism Diagnostic Observation Schedule, 2nd edition (ADOS-2) with video and audio files recorded on 3 cameras, and the Expressive One Word Picture Vocabulary Testing (EOWPVT). Both of these observational metrics were administered by a trained and certified examiner using approved test materials. Three standardized questionnaires were completed by parents at 3 time points: baseline, 7-days post-infusion, and 6-weeks post-infusion. The three standardized questionnaires completed by parents were the 58-question Aberrant Behavior Checklist (ABC), the 75-item Autism Treatment Evaluation Checklist (ATEC), and the 33-item repetitive behavior questionnaire (RBQ). Parents were asked to complete these three instruments with reference to how their child behaved in the previous 7 days. At the end of the six weeks, we included a 24-question Clinical Global Impression (CGI) questionnaire (FIG. 16). In addition, parents were asked to list the 3 top behaviors or symptoms that they observed to be most changed over the previous 6-weeks. To minimize the misinterpretation of natural day-to-day variations in symptoms, parents were asked to mark a symptom as changed in the 6-week CGI only if it had lasted for at least 1 week. […]
Behavioral and neurological effects of treatment were assessed primarily by the examiner-based ADOS-2 protocol scores and standardized vocabulary testing (Expressive One Word Picture Vocabulary Test, EOWPVT), with secondary evaluation via parent-based assessments (Aberrant Behavior Checklist (ABC) scores, Autism Treatment Evaluation Checklist (ATEC) scores, Clinical Global Impression of Improvement (CGI) scores, and Repetitive Behavior Questionnaire (RBQ) scores). […] Examiner-based outcomes (ADOS and EOWPVT) were assessed at 2-days and 6-weeks after the infusion. Parent-based outcomes (ABC, ATEC, CGI, and RBQ) were assessed at 7-days and 6-weeks after the infusion. […]
Each child was used as their own control to examine before and after treatment effects from Example 1 in a paired t-test design for the analysis of the ADOS, EOWPVT, ABC, ATEC, RBQ (FIGS. 4-11 show individual analyses), and blood and urine safety data (FIGS. 2 and 3 show individual analyses). […] Categorical data, such as the presence or absence of adverse events or historical symptoms was analyzed by Fisher's exact test. […] Cohen's d—calculated as the mean difference of the paired, within-subject scores before and after treatment, divided by the standard deviation of the differences—was used as an estimate of effect size.

Cc1ccc(C(=O)Nc2ccc(S(=O)(=O)O)c3cc(S(=O)(=O)O)cc(S(=O)(=O)O)c23)cc1NC(=O)c1cccc(NC(=O)Nc2cccc(C(=O)Nc3cc(C(=O)Nc4ccc(S(=O)(=O)O)c5cc(S(=O)(=O)O)cc(S(=O)(=O)O)c45)ccc3C)c2)c1 [Suramin, suramin]
Difference from baseline (mean ± sd) (7 days after treatment): −3.6 ± 2.1
d (Cohen's d) (7 days after treatment): 1.7
Difference from baseline (mean ± sd) (45 days after treatment): −4.0 ± 2.3
d (Cohen's d) (45 days after treatment): 1.7

Source: patent US20190358181A1, “METHODS FOR AUTISM SPECTRUM DISORDER PHARMACOTHERAPY” (priority 2017, published 2019)
